# Measured values from PMC5458547, “Discovery of first-in-class reversible dual small molecule inhibitors against G9a and DNMTs in hematological malignancies” (Nature Communications, 2017).
# What was measured:
# Assay in all cases: KINOMEscan kinase profiling
# Assay type in all cases: binding
# AURKA = target: T1, AURKA (Homo sapiens, UniProt O14965); conditions: read-out: Percent Control
# T1 construct: purchased DiscoverX KINOMEscan (kinases); BPS Bioscience (epigenetic targets)
# Protocol: (§1) Kinase Selectivity Profiling
# (§2) (out of which 90 are non-mutant kinases) was performed at DiscoverRx (http://www.discoverx.com/home) using the KINOMEscan™ screening platform at a test concentration of 10 µM. Results for primary screen […]
# (§3) positive control signal) / (negative control signal – positive control signal) *100, where negative control corresponds to DMSO treatment (100%) and positive control to the signal obtained with a control competitive compound (0%). […]
# (§4) using the Hill equation. Each target was assayed in duplicate. […]
# SNARK = target: T2, SNARK (Homo sapiens, UniProt Q9H093); conditions: read-out: Percent Control
# T2 construct: purchased DiscoverX KINOMEscan (kinases); BPS Bioscience (epigenetic targets)
# Protocol: as §1, §2, §3, §4
# PAK4 = target: T3, PAK4 (Homo sapiens, UniProt O96013); conditions: read-out: Percent Control
# T3 construct: purchased DiscoverX KINOMEscan (kinases); BPS Bioscience (epigenetic targets)
# Protocol: as §1, §2, §3, §4
# TRKA = target: T4, TRKA (Homo sapiens, UniProt P04629)
# T4 construct: purchased DiscoverRx (DiscoverX), KINOMEscan screening platform
# Protocol: as §1, §2, §3, §4
# CDK3 = target: T5, CDK3 (Homo sapiens, UniProt Q00526); conditions: read-out: Percent Control
# T5 construct: purchased DiscoverX KINOMEscan (kinases); BPS Bioscience (epigenetic targets)
# Protocol: as §1, §2, §3, §4
# EGFR = target: T6, EGFR (Homo sapiens, UniProt P00533); conditions: read-out: Percent Control
# T6 construct: purchased DiscoverX KINOMEscan (kinases); BPS Bioscience (epigenetic targets)
# Protocol: as §1, §2, §3, §4
# PAK1 = target: T7, PAK1 (Homo sapiens, UniProt Q13153); conditions: read-out: Percent Control
# T7 construct: purchased DiscoverX KINOMEscan (kinases); BPS Bioscience (epigenetic targets)
# Protocol: as §1, §2, §3, §4
# PDGFRB = target: T8, PDGFRB (Homo sapiens, UniProt P09619); conditions: read-out: Percent Control
# T8 construct: purchased DiscoverX KINOMEscan (kinases); BPS Bioscience (epigenetic targets)
# Protocol: as §1, §2, §3, §4
# p38-beta = target: T9, p38-beta (Homo sapiens, UniProt Q15759); conditions: read-out: Percent Control
# T9 construct: purchased DiscoverX KINOMEscan (kinases); BPS Bioscience (epigenetic targets)
# Protocol: as §1, §2, §3, §4
# ERBB4 = target: T10, ERBB4 (Homo sapiens, UniProt Q15303); conditions: read-out: Percent Control
# T10 construct: purchased DiscoverX KINOMEscan (kinases); BPS Bioscience (epigenetic targets)
# Protocol: as §1, §2, §3, §4
# IKK-beta = target: T11, IKK-beta (Homo sapiens, UniProt O14920); conditions: read-out: Percent Control
# T11 construct: purchased DiscoverX KINOMEscan (kinases); BPS Bioscience (epigenetic targets)
# Protocol: as §1, §2, §3, §4
# AKT2 = target: T12, AKT2 (Homo sapiens, UniProt P31751); conditions: read-out: Percent Control
# T12 construct: purchased DiscoverX KINOMEscan (kinases); BPS Bioscience (epigenetic targets)
# Protocol: as §1, §2, §3, §4
# PKAC-alpha = target: T13, PKAC-alpha (Homo sapiens, UniProt P17612); conditions: read-out: Percent Control
# T13 construct: purchased DiscoverX KINOMEscan (kinases); BPS Bioscience (epigenetic targets)
# Protocol: as §1, §2, §3, §4
# AKT1 = target: T14, AKT1 (Homo sapiens, UniProt P31749); conditions: read-out: Percent Control
# T14 construct: purchased DiscoverX KINOMEscan (kinases); BPS Bioscience (epigenetic targets)
# Protocol: as §1, §2, §3, §4
# PLK3 = target: T15, PLK3 (Homo sapiens, UniProt Q9H4B4); conditions: read-out: Percent Control
# T15 construct: purchased DiscoverX KINOMEscan (kinases); BPS Bioscience (epigenetic targets)
# Protocol: as §1, §2, §3, §4
# [1] = target: T16, ABL1(E255K)-phosphorylated (Homo sapiens, UniProt P00519, E255K); conditions: read-out: Percent Control
# T16 construct: purchased DiscoverX KINOMEscan (kinases); BPS Bioscience (epigenetic targets)
# Protocol: as §1, §2, §3, §4
# PDPK1 = target: T17, PDPK1 (Homo sapiens, UniProt O15530); conditions: read-out: Percent Control
# T17 construct: purchased DiscoverX KINOMEscan (kinases); BPS Bioscience (epigenetic targets)
# Protocol: as §1, §2, §3, §4
# BRAF(V600E) = target: T18, BRAF(V600E) (Homo sapiens, UniProt P15056, V600E); conditions: read-out: Percent Control
# T18 construct: purchased DiscoverX KINOMEscan (kinases); BPS Bioscience (epigenetic targets)
# Protocol: as §1, §2, §3, §4
# JNK3 = target: T19, JNK3 (Homo sapiens, UniProt P53779); conditions: read-out: Percent Control
# T19 construct: purchased DiscoverX KINOMEscan (kinases); BPS Bioscience (epigenetic targets)
# Protocol: as §1, §2, §3, §4
# EPHA2 = target: T20, EPHA2 (Homo sapiens, UniProt P29317); conditions: read-out: Percent Control
# T20 construct: purchased DiscoverX KINOMEscan (kinases); BPS Bioscience (epigenetic targets)
# Protocol: as §1, §2, §3, §4
# MAP3K4 = target: T21, MAP3K4 (Homo sapiens, UniProt Q9Y6R4); conditions: read-out: Percent Control
# T21 construct: purchased DiscoverX KINOMEscan (kinases); BPS Bioscience (epigenetic targets)
# Protocol: as §1, §2, §3, §4
# ROCK2 = target: T22, ROCK2 (Homo sapiens, UniProt O75116)
# T22 construct: purchased DiscoverRx (DiscoverX), KINOMEscan screening platform
# Protocol: as §1, §2, §3, §4
# FGFR3 = target: T23, FGFR3 (Homo sapiens, UniProt P22607); conditions: read-out: Percent Control
# T23 construct: purchased DiscoverX KINOMEscan (kinases); BPS Bioscience (epigenetic targets)
# Protocol: as §1, §2, §3, §4
# MET = target: T24, MET (Homo sapiens, UniProt P08581); conditions: read-out: Percent Control
# T24 construct: purchased DiscoverX KINOMEscan (kinases); BPS Bioscience (epigenetic targets)
# Protocol: as §1, §2, §3, §4
# CSNK1D = target: T25, CSNK1D (Homo sapiens, UniProt P48730); conditions: read-out: Percent Control
# T25 construct: purchased DiscoverX KINOMEscan (kinases); BPS Bioscience (epigenetic targets)
# Protocol: as §1, §2, §3, §4
# LKB1 = target: T26, LKB1 (Homo sapiens, UniProt Q15831); conditions: read-out: Percent Control
# T26 construct: purchased DiscoverX KINOMEscan (kinases); BPS Bioscience (epigenetic targets)
# Protocol: as §1, §2, §3, §4
# PAK2 = target: T27, PAK2 (Homo sapiens, UniProt Q13177); conditions: read-out: Percent Control
# T27 construct: purchased DiscoverX KINOMEscan (kinases); BPS Bioscience (epigenetic targets)
# Protocol: as §1, §2, §3, §4
# MKNK2 = target: T28, MKNK2 (Homo sapiens, UniProt Q9HBH9); conditions: read-out: Percent Control
# T28 construct: purchased DiscoverX KINOMEscan (kinases); BPS Bioscience (epigenetic targets)
# Protocol: as §1, §2, §3, §4
# ABL1-nonphosphorylated = target: T29, ABL1-nonphosphorylated (Homo sapiens, UniProt P00519); conditions: read-out: Percent Control
# T29 construct: purchased DiscoverX KINOMEscan (kinases); BPS Bioscience (epigenetic targets)
# Protocol: as §1, §2, §3, §4
# PIM1 = target: T30, PIM1 (Homo sapiens, UniProt P11309); conditions: read-out: Percent Control
# T30 construct: purchased DiscoverX KINOMEscan (kinases); BPS Bioscience (epigenetic targets)
# Protocol: as §1, §2, §3, §4
# AURKB = target: T31, AURKB (Homo sapiens, UniProt Q96GD4); conditions: read-out: Percent Control
# T31 construct: purchased DiscoverX KINOMEscan (kinases); BPS Bioscience (epigenetic targets)
# Protocol: as §1, §2, §3, §4
# KIT = target: T32, KIT (Homo sapiens, UniProt P10721); conditions: read-out: Percent Control
# T32 construct: purchased DiscoverX KINOMEscan (kinases); BPS Bioscience (epigenetic targets)
# Protocol: as §1, §2, §3, §4
# VEGFR2 = target: T33, VEGFR2 (Homo sapiens, UniProt P35968); conditions: read-out: Percent Control
# T33 construct: purchased DiscoverX KINOMEscan (kinases); BPS Bioscience (epigenetic targets)
# Protocol: as §1, §2, §3, §4
# GSK3B = target: T34, GSK3B (Homo sapiens, UniProt P49841); conditions: read-out: Percent Control
# T34 construct: purchased DiscoverX KINOMEscan (kinases); BPS Bioscience (epigenetic targets)
# Protocol: as §1, §2, §3, §4
# ABL1-phosphorylated = target: T35, ABL1-phosphorylated (Homo sapiens, UniProt P00519); conditions: read-out: Percent Control
# T35 construct: purchased DiscoverX KINOMEscan (kinases); BPS Bioscience (epigenetic targets)
# Protocol: as §1, §2, §3, §4
# MAPKAPK2 = target: T36, MAPKAPK2 (Homo sapiens, UniProt P49137); conditions: read-out: Percent Control
# T36 construct: purchased DiscoverX KINOMEscan (kinases); BPS Bioscience (epigenetic targets)
# Protocol: as §1, §2, §3, §4
# [2] = target: T37, TYK2(JH1domain-catalytic) (Homo sapiens, UniProt P29597); conditions: read-out: Percent Control
# T37 construct: TYK2(JH1domain-catalytic); purchased DiscoverX KINOMEscan (kinases); BPS Bioscience (epigenetic targets)
# Protocol: as §1, §2, §3, §4
# CDK7 = target: T38, CDK7 (Homo sapiens, UniProt P50613); conditions: read-out: Percent Control
# T38 construct: purchased DiscoverX KINOMEscan (kinases); BPS Bioscience (epigenetic targets)
# Protocol: as §1, §2, §3, §4
# CDK2 = target: T39, CDK2 (Homo sapiens, UniProt P24941); conditions: read-out: Percent Control
# T39 construct: purchased DiscoverX KINOMEscan (kinases); BPS Bioscience (epigenetic targets)
# Protocol: as §1, §2, §3, §4
# BTK = target: T40, BTK (Homo sapiens, UniProt Q06187)
# T40 construct: purchased DiscoverRx (KINOMEscan contract screen)
# Protocol: as §1, §2, §3, §4
# [3] = 10 µM, read-out: Percent Control
# T40 sequence (Q06187 whole entry): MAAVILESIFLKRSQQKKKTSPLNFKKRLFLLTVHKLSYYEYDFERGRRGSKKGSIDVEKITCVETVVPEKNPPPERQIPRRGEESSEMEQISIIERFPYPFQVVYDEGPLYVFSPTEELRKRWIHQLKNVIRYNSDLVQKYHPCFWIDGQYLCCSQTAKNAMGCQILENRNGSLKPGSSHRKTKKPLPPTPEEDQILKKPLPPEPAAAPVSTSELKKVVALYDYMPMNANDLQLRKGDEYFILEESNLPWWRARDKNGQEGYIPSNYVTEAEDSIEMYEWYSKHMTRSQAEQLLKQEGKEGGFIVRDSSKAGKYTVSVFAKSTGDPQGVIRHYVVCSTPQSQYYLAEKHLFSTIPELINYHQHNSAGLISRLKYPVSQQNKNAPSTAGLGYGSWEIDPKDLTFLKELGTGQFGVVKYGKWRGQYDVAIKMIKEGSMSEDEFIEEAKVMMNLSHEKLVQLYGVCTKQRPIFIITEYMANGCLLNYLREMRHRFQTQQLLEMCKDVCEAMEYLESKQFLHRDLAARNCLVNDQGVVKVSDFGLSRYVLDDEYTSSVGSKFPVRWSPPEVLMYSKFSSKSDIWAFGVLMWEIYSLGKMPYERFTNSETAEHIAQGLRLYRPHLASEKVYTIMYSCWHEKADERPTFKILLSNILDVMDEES
# T4 sequence (P04629 33-796): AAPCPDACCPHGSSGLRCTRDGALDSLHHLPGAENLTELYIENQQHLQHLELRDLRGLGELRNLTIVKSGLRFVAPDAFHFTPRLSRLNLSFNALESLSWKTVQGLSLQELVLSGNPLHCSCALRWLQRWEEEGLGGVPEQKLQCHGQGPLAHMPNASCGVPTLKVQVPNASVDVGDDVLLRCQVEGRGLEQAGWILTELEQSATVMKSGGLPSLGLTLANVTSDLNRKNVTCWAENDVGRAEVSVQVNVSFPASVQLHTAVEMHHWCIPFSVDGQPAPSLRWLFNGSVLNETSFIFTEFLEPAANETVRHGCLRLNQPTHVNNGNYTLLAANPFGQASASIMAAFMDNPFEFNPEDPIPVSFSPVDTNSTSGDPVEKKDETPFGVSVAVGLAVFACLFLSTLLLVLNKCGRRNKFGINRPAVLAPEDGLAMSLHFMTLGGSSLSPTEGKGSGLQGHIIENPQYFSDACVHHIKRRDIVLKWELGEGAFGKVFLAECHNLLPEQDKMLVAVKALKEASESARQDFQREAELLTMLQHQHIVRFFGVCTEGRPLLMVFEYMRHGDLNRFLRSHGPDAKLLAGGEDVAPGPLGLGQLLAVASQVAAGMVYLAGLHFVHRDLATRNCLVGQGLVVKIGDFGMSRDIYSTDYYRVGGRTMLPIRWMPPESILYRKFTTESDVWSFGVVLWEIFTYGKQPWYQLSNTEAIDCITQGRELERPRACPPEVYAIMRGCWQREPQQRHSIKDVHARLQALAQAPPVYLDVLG
# T22 sequence (O75116 whole entry): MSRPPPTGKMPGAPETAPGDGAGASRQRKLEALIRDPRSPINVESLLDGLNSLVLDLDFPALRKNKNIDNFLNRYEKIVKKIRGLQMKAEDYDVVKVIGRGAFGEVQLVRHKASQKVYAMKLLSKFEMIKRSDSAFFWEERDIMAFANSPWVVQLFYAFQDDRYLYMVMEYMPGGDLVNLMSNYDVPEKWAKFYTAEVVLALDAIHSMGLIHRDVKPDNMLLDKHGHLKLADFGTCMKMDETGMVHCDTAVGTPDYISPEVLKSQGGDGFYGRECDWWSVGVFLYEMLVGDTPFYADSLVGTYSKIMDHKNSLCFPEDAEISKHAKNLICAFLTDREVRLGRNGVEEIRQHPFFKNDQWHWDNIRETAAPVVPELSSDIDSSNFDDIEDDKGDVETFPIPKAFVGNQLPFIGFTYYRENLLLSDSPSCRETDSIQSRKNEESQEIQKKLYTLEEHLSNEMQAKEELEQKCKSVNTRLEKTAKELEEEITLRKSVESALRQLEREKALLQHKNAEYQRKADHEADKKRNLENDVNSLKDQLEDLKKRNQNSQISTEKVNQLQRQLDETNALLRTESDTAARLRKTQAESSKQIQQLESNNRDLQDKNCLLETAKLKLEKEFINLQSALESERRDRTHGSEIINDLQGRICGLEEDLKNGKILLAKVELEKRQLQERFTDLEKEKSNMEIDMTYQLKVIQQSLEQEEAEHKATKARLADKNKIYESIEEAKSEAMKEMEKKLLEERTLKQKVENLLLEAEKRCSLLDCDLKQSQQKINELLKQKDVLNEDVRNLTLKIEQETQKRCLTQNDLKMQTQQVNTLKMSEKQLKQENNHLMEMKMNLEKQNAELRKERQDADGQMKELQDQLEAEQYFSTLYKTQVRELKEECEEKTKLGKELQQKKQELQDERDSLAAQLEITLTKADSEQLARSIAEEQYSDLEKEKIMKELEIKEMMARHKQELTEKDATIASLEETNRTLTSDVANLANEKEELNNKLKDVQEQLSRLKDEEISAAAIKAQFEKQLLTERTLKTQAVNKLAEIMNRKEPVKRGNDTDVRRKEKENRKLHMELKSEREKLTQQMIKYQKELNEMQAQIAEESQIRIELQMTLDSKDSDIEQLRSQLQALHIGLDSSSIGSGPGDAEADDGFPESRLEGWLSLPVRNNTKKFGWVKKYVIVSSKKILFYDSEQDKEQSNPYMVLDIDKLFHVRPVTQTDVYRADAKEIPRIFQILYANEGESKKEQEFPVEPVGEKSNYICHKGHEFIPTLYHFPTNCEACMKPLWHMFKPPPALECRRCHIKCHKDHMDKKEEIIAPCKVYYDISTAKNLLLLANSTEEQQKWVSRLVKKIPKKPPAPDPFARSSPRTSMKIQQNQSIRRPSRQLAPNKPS
# T17 sequence (O15530 whole entry): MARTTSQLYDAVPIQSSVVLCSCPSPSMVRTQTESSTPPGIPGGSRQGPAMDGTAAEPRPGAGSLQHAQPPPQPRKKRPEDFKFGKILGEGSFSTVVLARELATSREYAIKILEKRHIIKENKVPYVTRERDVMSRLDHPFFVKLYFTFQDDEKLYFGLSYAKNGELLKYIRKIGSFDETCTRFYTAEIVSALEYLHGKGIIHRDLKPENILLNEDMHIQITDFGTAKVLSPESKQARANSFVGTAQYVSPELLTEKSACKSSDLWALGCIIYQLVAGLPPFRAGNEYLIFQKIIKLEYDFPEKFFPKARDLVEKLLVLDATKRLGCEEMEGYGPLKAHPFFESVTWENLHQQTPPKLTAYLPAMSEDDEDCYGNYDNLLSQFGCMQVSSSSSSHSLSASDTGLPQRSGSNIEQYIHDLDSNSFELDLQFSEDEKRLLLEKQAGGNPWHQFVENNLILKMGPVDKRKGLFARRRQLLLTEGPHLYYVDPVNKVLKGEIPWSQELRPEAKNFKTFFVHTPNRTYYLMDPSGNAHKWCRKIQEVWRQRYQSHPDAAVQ
# T21 sequence (Q9Y6R4 whole entry): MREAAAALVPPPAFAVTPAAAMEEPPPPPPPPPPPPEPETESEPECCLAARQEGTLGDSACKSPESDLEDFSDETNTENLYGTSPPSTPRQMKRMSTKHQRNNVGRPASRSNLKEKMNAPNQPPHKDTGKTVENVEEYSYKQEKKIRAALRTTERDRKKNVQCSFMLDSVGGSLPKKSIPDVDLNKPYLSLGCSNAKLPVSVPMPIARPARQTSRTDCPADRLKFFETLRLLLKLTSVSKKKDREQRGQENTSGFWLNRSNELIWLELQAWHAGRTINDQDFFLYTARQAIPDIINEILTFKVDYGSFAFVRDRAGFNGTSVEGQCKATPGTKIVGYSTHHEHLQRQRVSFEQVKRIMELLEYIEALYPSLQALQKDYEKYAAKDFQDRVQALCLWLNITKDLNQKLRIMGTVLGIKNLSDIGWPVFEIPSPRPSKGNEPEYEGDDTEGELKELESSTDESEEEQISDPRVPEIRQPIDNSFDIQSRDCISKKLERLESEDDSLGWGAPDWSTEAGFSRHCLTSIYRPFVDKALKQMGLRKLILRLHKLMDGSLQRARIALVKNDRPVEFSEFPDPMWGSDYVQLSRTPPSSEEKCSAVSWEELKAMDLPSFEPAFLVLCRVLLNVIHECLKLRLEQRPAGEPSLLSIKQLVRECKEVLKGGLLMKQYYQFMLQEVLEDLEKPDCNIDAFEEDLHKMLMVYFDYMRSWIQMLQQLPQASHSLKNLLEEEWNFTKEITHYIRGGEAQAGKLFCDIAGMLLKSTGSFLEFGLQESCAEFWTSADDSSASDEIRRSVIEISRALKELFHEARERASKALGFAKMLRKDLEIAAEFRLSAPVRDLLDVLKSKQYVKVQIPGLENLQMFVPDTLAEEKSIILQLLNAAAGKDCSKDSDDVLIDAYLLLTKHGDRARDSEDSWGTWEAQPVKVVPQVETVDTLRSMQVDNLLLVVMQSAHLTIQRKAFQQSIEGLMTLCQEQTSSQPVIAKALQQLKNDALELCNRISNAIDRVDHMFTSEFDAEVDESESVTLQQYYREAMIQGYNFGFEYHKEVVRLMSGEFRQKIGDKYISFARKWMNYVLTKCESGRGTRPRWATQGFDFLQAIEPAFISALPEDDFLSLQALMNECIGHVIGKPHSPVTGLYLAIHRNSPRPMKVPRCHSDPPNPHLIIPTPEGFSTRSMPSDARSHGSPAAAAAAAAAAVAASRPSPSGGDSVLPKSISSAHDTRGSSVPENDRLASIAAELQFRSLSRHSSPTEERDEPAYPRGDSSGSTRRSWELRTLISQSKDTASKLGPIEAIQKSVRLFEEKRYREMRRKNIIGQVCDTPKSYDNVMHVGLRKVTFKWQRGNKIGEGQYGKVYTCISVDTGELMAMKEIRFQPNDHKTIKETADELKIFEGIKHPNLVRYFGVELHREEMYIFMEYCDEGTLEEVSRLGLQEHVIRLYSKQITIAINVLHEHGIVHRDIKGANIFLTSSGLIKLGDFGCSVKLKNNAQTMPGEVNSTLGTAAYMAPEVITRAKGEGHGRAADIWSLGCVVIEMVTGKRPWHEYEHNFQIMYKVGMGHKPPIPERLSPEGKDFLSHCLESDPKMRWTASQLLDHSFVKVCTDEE
smiles,measurement,setting,value
"COc1cc2c(NC3CCN(C)CC3)cc(-c3ccc(C)o3)nc2cc1OCCCN1CCCC1 [CM-272, 6-methoxy-2-(5-methyl-2-furyl)-N-(1-methyl-4-piperidyl)-7-(3-pyrrolidin-1-ylpropoxy)quinolin-4-amine]",remaining binding at 10 µM,AURKA,71%
same,remaining binding at 10 µM,SNARK,12%
same,remaining binding at 10 µM,PAK4,100%
same,remaining binding at 10 µM,TRKA; [3],0%
same,Kd,TRKA; KINOMEscan,1100 nM
same,remaining binding at 10 µM,CDK3,100%
same,remaining binding at 10 µM,EGFR,100%
same,remaining binding at 10 µM,PAK1,69%
same,remaining binding at 10 µM,PDGFRB,100%
same,remaining binding at 10 µM,p38-beta,92%
same,remaining binding at 10 µM,ERBB4,97%
same,remaining binding at 10 µM,IKK-beta,13%
same,remaining binding at 10 µM,AKT2,100%
same,remaining binding at 10 µM,PKAC-alpha,100%
same,remaining binding at 10 µM,AKT1,100%
same,remaining binding at 10 µM,PLK3,73%
same,remaining binding at 10 µM,[1],5.5%
same,remaining binding at 10 µM,PDPK1,100%
same,remaining binding at 10 µM,BRAF(V600E),27%
same,remaining binding at 10 µM,JNK3,8.9%
same,remaining binding at 10 µM,EPHA2,100%
same,remaining binding at 10 µM,MAP3K4,93%
same,remaining binding at 10 µM,ROCK2; [3],0.3%
same,Kd,ROCK2; KINOMEscan,1700 nM
same,remaining binding at 10 µM,FGFR3,100%
same,remaining binding at 10 µM,MET,91%
same,remaining binding at 10 µM,CSNK1D,95%
same,remaining binding at 10 µM,LKB1,100%
same,remaining binding at 10 µM,PAK2,67%
same,remaining binding at 10 µM,MKNK2,18%
same,remaining binding at 10 µM,ABL1-nonphosphorylated,9.4%
same,remaining binding at 10 µM,PIM1,93%
same,remaining binding at 10 µM,AURKB,61%
same,remaining binding at 10 µM,KIT,100%
same,remaining binding at 10 µM,VEGFR2,23%
same,remaining binding at 10 µM,GSK3B,61%
same,remaining binding at 10 µM,ABL1-phosphorylated,4.8%
same,remaining binding at 10 µM,MAPKAPK2,87%
same,remaining binding at 10 µM,[2],22%
same,remaining binding at 10 µM,CDK7,53%
same,remaining binding at 10 µM,CDK2,100%
same,remaining binding at 10 µM,BTK; [3],0.5%
same,Kd,BTK; KINOMEscan,1100 nM
